Experimental data: PubChem BioAssay AID1963433 (Molecular Pharmacology Branch, DTP, NCI, 2024)
Values belong to the compound of their own block, whether it stands above or below them.

Tested on: 772245-204-R-J1-PDC complex spheroid growth
Assay: Anticancer human tumor 772245-204-R-J1-PDC patient-derived rhabdomyosarcoma cell line growth inhibition [Asc]
Details: for IC50: curve of first compound; for viability, T/C: stronger effect = lower value
In short: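 Tumor cells were grown as multicellular spheroids with stromal HUVEC and mesenchymal stem cells and treated singly or in combination. Concentrations fell in half-log steps from the clinical Cmax, or from 10 microM where none was known.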

[1] = second compound 0.1 µM, first compound 0.0316 µM
[2] = second compound 0.1 µM, first compound 0.1 µM
[3] = second compound 0.1 µM, first compound 0.316 µM
[4] = second compound 0.1 µM, first compound 1 µM
[5] = second compound 0.1 µM, first compound 3.16 µM
[6] = second compound 0.1 µM, first compound 10 µM
[7] = second compound 0.316 µM, first compound 0.0316 µM
[8] = second compound 0.316 µM, first compound 0.1 µM
[9] = second compound 0.316 µM, first compound 0.316 µM
[10] = second compound 0.316 µM, first compound 1 µM
[11] = second compound 0.316 µM, first compound 3.16 µM
[12] = second compound 0.316 µM, first compound 10 µM
[13] = second compound 1 µM, first compound 0.0316 µM
[14] = second compound 1 µM, first compound 0.1 µM
[15] = second compound 1 µM, first compound 0.316 µM
[16] = second compound 1 µM, first compound 1 µM
[17] = second compound 1 µM, first compound 3.16 µM
[18] = second compound 1 µM, first compound 10 µM
[19] = second compound 3.16 µM, first compound 0.0316 µM
[20] = second compound 3.16 µM, first compound 0.1 µM
[21] = second compound 3.16 µM, first compound 0.316 µM
[22] = second compound 3.16 µM, first compound 1 µM
[23] = second compound 3.16 µM, first compound 3.16 µM
[24] = second compound 3.16 µM, first compound 10 µM
[25] = second compound 10 µM, first compound 0.0316 µM
[26] = second compound 10 µM, first compound 0.1 µM
[27] = second compound 10 µM, first compound 0.316 µM
[28] = second compound 10 µM, first compound 1 µM
[29] = second compound 10 µM, first compound 3.16 µM
[30] = second compound 10 µM, first compound 10 µM
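Further: compound exposure lasted seven days.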
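Wherever viability, T/C is given: 100% = DMSO vehicle control viability.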

IC50 (second compound 0.1 µM): 1.57 µM
IC50 (second compound 0.316 µM): 0.772 µM
IC50 (second compound 1 µM): < 0.0316 µM
IC50 (second compound 3.16 µM): < 0.0316 µM
IC50 (second compound 10 µM): < 0.0316 µM
Structure (SMILES): C=C(F)C(=O)N1CCN(c2nc(OCC3CCCN3C)nc3c2CCN(c2cccc4cccc(Cl)c24)C3)CC1CC#N (stereo not given) + Cc1c(S(C)(=O)=O)c(-c2cc(F)cc(N3CCN(c4ccc(NS(=O)(=O)c5ccc(NC(CCN6CCC(C(=O)OCCCP(=O)(O)O)CC6)CSc6ccccc6)c(S(=O)(=O)C(F)(F)F)c5)cc4)CC3)c2)c(-c2ccc(Cl)cc2)n1C(C)C
viability, T/C [1]: 79%
viability, T/C [2]: 77.7%
viability, T/C [3]: 72.6%
viability, T/C [4]: 70.7%
viability, T/C [5]: 18.1%
viability, T/C [6]: 0.14%
viability, T/C [7]: 60.4%
viability, T/C [8]: 65.2%
viability, T/C [9]: 52.3%
viability, T/C [10]: 47.8%
viability, T/C [11]: 3.54%
viability, T/C [12]: 0.12%
viability, T/C [13]: 40%
viability, T/C [14]: 45.9%
viability, T/C [15]: 35.4%
viability, T/C [16]: 30.9%
viability, T/C [17]: 2.95%
viability, T/C [18]: 0.1%
viability, T/C [19]: 35.7%
viability, T/C [20]: 39.7%
viability, T/C [21]: 45.7%
viability, T/C [22]: 20.1%
viability, T/C [23]: 1.47%
viability, T/C [24]: 0.11%
viability, T/C [25]: 43.3%
viability, T/C [26]: 39.4%
viability, T/C [27]: 37.3%
viability, T/C [28]: 17.6%
viability, T/C [29]: 1.02%
viability, T/C [30]: 0.18%

IC50 (second compound 0.1 µM): 6.32 µM
IC50 (second compound 0.316 µM): 2.43 µM
IC50 (second compound 1 µM): < 0.0316 µM
IC50 (second compound 3.16 µM): 0.0579 µM
IC50 (second compound 10 µM): < 0.0316 µM
Structure (SMILES): C=CC(=O)N1CCN(c2nc(=O)n(-c3c(C)ccnc3C(C)C)c3nc(-c4c(O)cccc4F)c(F)cc23)C(C)C1 (stereo not given) + Cc1c(S(C)(=O)=O)c(-c2cc(F)cc(N3CCN(c4ccc(NS(=O)(=O)c5ccc(NC(CCN6CCC(C(=O)OCCCP(=O)(O)O)CC6)CSc6ccccc6)c(S(=O)(=O)C(F)(F)F)c5)cc4)CC3)c2)c(-c2ccc(Cl)cc2)n1C(C)C
viability, T/C [1]: 85%
viability, T/C [2]: 79.7%
viability, T/C [3]: 89.5%
viability, T/C [4]: 67.7%
viability, T/C [5]: 69.5%
viability, T/C [6]: 38.9%
viability, T/C [7]: 66.9%
viability, T/C [8]: 69.2%
viability, T/C [9]: 68.2%
viability, T/C [10]: 59.9%
viability, T/C [11]: 47.1%
viability, T/C [12]: 11.8%
viability, T/C [13]: 49.9%
viability, T/C [14]: 43%
viability, T/C [15]: 44.9%
viability, T/C [16]: 29.3%
viability, T/C [17]: 15.1%
viability, T/C [18]: 15.1%
viability, T/C [19]: 41.8%
viability, T/C [20]: 62.3%
viability, T/C [21]: 37.9%
viability, T/C [22]: 26.5%
viability, T/C [23]: 15.8%
viability, T/C [24]: 5.71%
viability, T/C [25]: 48.5%
viability, T/C [26]: 41.3%
viability, T/C [27]: 41.3%
viability, T/C [28]: 30.6%
viability, T/C [29]: 13.5%
viability, T/C [30]: 6.87%

IC50 (second compound 0.1 µM): 1.3 µM
IC50 (second compound 0.316 µM): 0.405 µM
IC50 (second compound 1 µM): 0.0258 µM
IC50 (second compound 3.16 µM): < 0.00949 µM
IC50 (second compound 10 µM): < 0.00949 µM
Structure (SMILES): CCN1C(C(=O)NC23CCC(C(=O)O)(CC2)CC3)C(c2cccc(Cl)c2F)C2(C(=O)Nc3cc(Cl)ccc32)C12CCCCC2 (stereo not given) + Cc1c(S(C)(=O)=O)c(-c2cc(F)cc(N3CCN(c4ccc(NS(=O)(=O)c5ccc(NC(CCN6CCC(C(=O)OCCCP(=O)(O)O)CC6)CSc6ccccc6)c(S(=O)(=O)C(F)(F)F)c5)cc4)CC3)c2)c(-c2ccc(Cl)cc2)n1C(C)C
viability, T/C (second compound 0.1 µM, first compound 0.00949 µM): 80%
viability, T/C (second compound 0.1 µM, first compound 0.03 µM): 84.5%
viability, T/C (second compound 0.1 µM, first compound 0.0949 µM): 71.5%
viability, T/C (second compound 0.1 µM, first compound 0.3 µM): 78.3%
viability, T/C (second compound 0.1 µM, first compound 0.949 µM): 57.6%
viability, T/C (second compound 0.1 µM, first compound 3 µM): 29.6%
viability, T/C (second compound 0.316 µM, first compound 0.00949 µM): 57.2%
viability, T/C (second compound 0.316 µM, first compound 0.03 µM): 65.5%
viability, T/C (second compound 0.316 µM, first compound 0.0949 µM): 67.2%
viability, T/C (second compound 0.316 µM, first compound 0.3 µM): 51.9%
viability, T/C (second compound 0.316 µM, first compound 0.949 µM): 36.6%
viability, T/C (second compound 0.316 µM, first compound 3 µM): 13.4%
viability, T/C (second compound 1 µM, first compound 0.00949 µM): 58.8%
viability, T/C (second compound 1 µM, first compound 0.03 µM): 49.2%
viability, T/C (second compound 1 µM, first compound 0.0949 µM): 38%
viability, T/C (second compound 1 µM, first compound 0.3 µM): 29.3%
viability, T/C (second compound 1 µM, first compound 0.949 µM): 25.9%
viability, T/C (second compound 1 µM, first compound 3 µM): 15%
viability, T/C (second compound 3.16 µM, first compound 0.00949 µM): 32.1%
viability, T/C (second compound 3.16 µM, first compound 0.03 µM): 42%
viability, T/C (second compound 3.16 µM, first compound 0.0949 µM): 35.3%
viability, T/C (second compound 3.16 µM, first compound 0.3 µM): 21.6%
viability, T/C (second compound 3.16 µM, first compound 0.949 µM): 17.2%
viability, T/C (second compound 3.16 µM, first compound 3 µM): 9.63%
viability, T/C (second compound 10 µM, first compound 0.00949 µM): 46.4%
viability, T/C (second compound 10 µM, first compound 0.03 µM): 48.7%
viability, T/C (second compound 10 µM, first compound 0.0949 µM): 38.3%
viability, T/C (second compound 10 µM, first compound 0.3 µM): 35.2%
viability, T/C (second compound 10 µM, first compound 0.949 µM): 22.1%
viability, T/C (second compound 10 µM, first compound 3 µM): 4.04%

IC50 (second compound 0.1 µM): > 1 µM
IC50 (second compound 0.316 µM): 0.072 µM
IC50 (second compound 1 µM): < 0.00316 µM
IC50 (second compound 3.16 µM): < 0.00316 µM
IC50 (second compound 10 µM): < 0.00316 µM
Structure (SMILES): CNC(C)C(=O)NC1CN(S(=O)(=O)c2cccc(S(=O)(=O)N3CCC4CCC(C(=O)NC(c5ccccc5)c5ccccc5)N4C(=O)C(NC(=O)C(C)NC)C3)c2)CCC2CCC(C(=O)NC(c3ccccc3)c3ccccc3)N2C1=O (stereo not given) + Cc1c(S(C)(=O)=O)c(-c2cc(F)cc(N3CCN(c4ccc(NS(=O)(=O)c5ccc(NC(CCN6CCC(C(=O)OCCCP(=O)(O)O)CC6)CSc6ccccc6)c(S(=O)(=O)C(F)(F)F)c5)cc4)CC3)c2)c(-c2ccc(Cl)cc2)n1C(C)C
viability, T/C (second compound 0.1 µM, first compound 0.00316 µM): 79.9%
viability, T/C (second compound 0.1 µM, first compound 0.01 µM): 66.3%
viability, T/C [1]: 72.7%
viability, T/C [2]: 64.8%
viability, T/C [3]: 63.5%
viability, T/C [4]: 63%
viability, T/C (second compound 0.316 µM, first compound 0.00316 µM): 56.1%
viability, T/C (second compound 0.316 µM, first compound 0.01 µM): 56.5%
viability, T/C [7]: 55%
viability, T/C [8]: 45.8%
viability, T/C [9]: 45.2%
viability, T/C [10]: 44.5%
viability, T/C (second compound 1 µM, first compound 0.00316 µM): 43%
viability, T/C (second compound 1 µM, first compound 0.01 µM): 53.5%
viability, T/C [13]: 37.9%
viability, T/C [14]: 37.1%
viability, T/C [15]: 35.2%
viability, T/C [16]: 39.1%
viability, T/C (second compound 3.16 µM, first compound 0.00316 µM): 31.4%
viability, T/C (second compound 3.16 µM, first compound 0.01 µM): 32.8%
viability, T/C [19]: 31.6%
viability, T/C [20]: 29.5%
viability, T/C [21]: 29.8%
viability, T/C [22]: 25%
viability, T/C (second compound 10 µM, first compound 0.00316 µM): 32.2%
viability, T/C (second compound 10 µM, first compound 0.01 µM): 41.5%
viability, T/C [25]: 31.4%
viability, T/C [26]: 25.2%
viability, T/C [27]: 23.7%
viability, T/C [28]: 22.3%
